Laboratory results from US7723326B2, “Heterocyclic amide derivatives as RXR agonists for the treatment of dyslipidemia, hypercholesterolemia and diabetes” (Janssen Pharmaceutica N.V., priority 2005, dated 2010).

Experiments:
[1] = molecular target: T1, RXR ligand binding domain (accession number X52773) fused with the DNA binding domain of yeast GAL4 (Homo sapiens, UniProt P19793); assay: RXR co-transfection assay (GAL4-LBD luciferase reporter in HEK293 cells); assay type: cell-based; settings: 16-18 hours
T1 construct: expressed in transfected cells; host or cells: HEK293
T1 sequence (P19793 227-458 limits assumed): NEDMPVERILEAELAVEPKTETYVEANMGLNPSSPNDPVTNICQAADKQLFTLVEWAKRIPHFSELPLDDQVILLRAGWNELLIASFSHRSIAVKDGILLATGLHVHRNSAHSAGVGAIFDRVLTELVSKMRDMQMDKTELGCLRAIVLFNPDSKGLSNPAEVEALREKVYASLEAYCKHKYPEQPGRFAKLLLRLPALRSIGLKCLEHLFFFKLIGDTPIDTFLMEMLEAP
Protocol: The nucleic acid sequence from 676-1464bp (accession number X52773) encoding the ligand binding domains was subcloned into the pM vector (BD Biosciences Clontech, Palo Alto, Calif.) and were fused with the DNA binding domain of yeast GAL4. HEK293 cells were cultured in DMEM/F12 medium supplemented with 10% FBS and 1% 1-glutamine (growth medium). Cells were seeded at a density of 5-10×10^6 cells in 50 ml of growth medium and left overnight, The medium was removed and the cells were washed with 15 ml of OptiMEM serum free medium (Invitrogen Corp). The cells were transfected using OptiMEM serum free medium and DMRIE transfection reagent (Invitrogen Corp). Approximately 10-30 ng of DNA for the different receptors and 5-10 ng of the luciferase reporter (1:1 ratio for RAR and 4:1 ratio for RXR of receptor DNA:reporter DNA) were gently mixed with 51 μl of DMRIE reagent in a total volume of 17 ml of OptiMEM medium. Eighteen hours after transfection, the cells were washed once with growth medium and then incubated for 6 hrs in 30 ml of growth medium. The cells were then trypsinized, and reseeded at a density of 50,000 per well in 96 well plates and left overnight. The medium was replaced with 90 μl of medium containing DMEM/F12 supplemented with 0.5% charcoal-treated FBS (HyClone; Logan, Utah) and 1% glutamine. Compounds or vehicle were added in 10 μl of 10× concentration of compound or vehicle (0.1% dimethyl sulfoxide). The cells were treated for 16-18 hours, lysed and assayed for luciferase activity using the Steady Gio luciferase assay kit (Promega, Madison, Wis.).

[2] = test system: ABCA1 mRNA in THP-1 cells; assay: ABCA1 bDNA assay (ABCA1 mRNA induction); assay type: cell-based; settings: Homo sapiens; for Emax at 3 µM: relative to MX-6054, read-out: ABCA1 % max MX-6054; for EC50: ABCA1 mRNA induction, usually 18-24 hrs
Protocol: THP-1 cells, a human monocytic cell line, were obtained from ATCC and maintained in RPMI (Gibco) supplemented with 10% fetal bovine serum (Gibco), 2mM L-glutamine and 1% antibiotic-antimycotic in 5% CO2 at 37° C. For ABCA1 mRNA induction assays, the cells were pelleted and resuspended in RPMI supplemented with 0.5% charcoal treated serum (Hyclone), 2 mM glutamine and 1% antibiotic-antimycotic. The cells were plated at a density of 40,000 cells/90 μl and incubated as above for at least 4 hours before the initiation of treatments. Compounds were prepared as 10 mM stocks in DMSO. For treatments, the compounds were diluted in medium and 10 μl of 10× stocks were added to the cells at a final concentration 0.1% DMSO. The cells were incubated for the desired amount of time (usually 18-24 hrs) and then lyzed with 50 μl of Quantigene HV bDNA lysis buffer which also contained the ABCA1 bDNA probes (probe sequences shown below): […]

EC50 [1] [µM]	EC50 [2] [µM]	Structure (SMILES)	Emax at 3 µM [2] [%]
0.385	> 2	CCN1C(=O)C(C)(C)Oc2cc(C)c(-c3cc([C@@H]4C[C@H]4C(=O)O)ccc3OC(F)(F)F)cc21 (racemic) [Compound 22, 2-[3-(4-Ethyl-2,2,7-trimethyl-3-oxo-3,4-dihydro-2H-benzo[1,4]oxazin-6-yl)-4-trifluoromethoxy-phenyl]-cyclopropanecarboxylic acid]	28.6
0.0988	0.43	Cc1cc2c(cc1-c1cc(/C=C/C(=O)O)ccc1OC(F)(F)F)N(C(C)C)C(=O)C(C)(C)O2 [Compound 4, 3-[3-(4-Isopropyl-2,2,7-trimethyl-3-oxo-3,4-dihydro-2H-benzo[1,4]oxazin-6-yl)-4-trifluoromethoxy-phenyl]-acrylic acid]	79
	> 2	CCN1C(=O)OCc2cc(C)c(-c3cc([C@@H]4C[C@H]4C(=O)O)ccc3OC(F)(F)F)cc21 (racemic) [Compound 21, 2-[3-(1-Ethyl-6-methyl-2-oxo-1,4-dihydro-2H-benzo[d][1,3]oxazin-7-yl)-4-trifluoromethoxy-phenyl]-cyclopropanecarboxylic acid]	
> 2	> 2	CCn1c(=O)c(=O)n(CC)c2cc(-c3cc([C@@H]4C[C@H]4C(=O)O)ccc3OC(F)(F)F)c(C)cc21 (racemic) [Compound 26, 2-[3-(1,4-Diethyl-7-methyl-2,3-dioxo-1,2,3,4-tetrahydro-quinoxalin-6-yl)-4-trifluoromethoxy-phenyl]-cyclopropanecarboxylic acid]	
0.709	> 2	CCN1C(=O)C(C)(C)Oc2cc(C)c(-c3cc(CCC(=O)O)ccc3OC(F)(F)F)cc21 [Compound 12, 3-[3-(4-Ethyl-2,2,7-trimethyl-3-oxo-3,4-dihydro-2H-benzo[1,4]oxazin-6-yl)-4-trifluoromethoxy-phenyl]-propionic acid]	
1.4	> 2	CCN1C(=O)C(C)(C)Oc2cc(C)c(-c3cc(/C=C(\C)C(=O)O)ccc3OC(F)(F)F)cc21 [Compound 10, 3-[3-(4-Ethyl-2,2,7-trimethyl-3-oxo-3,4-dihydro-2H-benzo[1,4]oxazin-6-yl)-4-trifluoromethoxy-phenyl]-2-methyl-acrylic acid]	37.2
> 2	> 2	Cc1cc2c(cc1-c1cc(/C=C/C(=O)O)ccc1OC(F)(F)F)N(C)C(=O)C(C)(C)O2 [Compound 3, 3-[3-(2,2,4,7-Tetramethyl-3-oxo-3,4-dihydro-2H-benzo[1,4]oxazin-6-yl)-4-trifluoromethoxy-phenyl]-acrylic acid]	8.4
	> 2	CCN1C(=O)OC(C)(C)c2cc(C)c(-c3cc(/C=C/C(=O)O)ccc3OC(F)(F)F)cc21 [Compound 14, 3-[3-(1-Ethyl-4,4,6-trimethyl-2-oxo-1,4-dihydro-2H-benzo[d][1,3]oxazin-7-yl)-4-trifluoromethoxy-phenyl]-acrylic acid]	
	> 2	CCN1C(=O)OCc2cc(C)c(-c3cc(/C=C/C(=O)O)ccc3OC(F)(F)F)cc21 [Compound 15, 3-[3-(1-Ethyl-6-methyl-2-oxo-1,4-dihydro-2H-benzo[d][1,3]oxazin-7-yl)-4-trifluoromethoxy-phenyl]-acrylic acid]	
0.0612	> 2	CCN1C(=O)C(C)(C)Oc2cc(C)c(-c3cc(/C(C)=C/C(=O)O)ccc3OC(F)(F)F)cc21 [Compound 11, 3-[3-(4-Ethyl-2,2,7-trimethyl-3-oxo-3,4-dihydro-2H-benzo[1,4]oxazin-6-yl)-4-trifluoromethoxy-phenyl]-but-2-enoic acid]	75.5
	> 2	CCN1C(=O)CN(C(C)C)c2cc(C)c(-c3cc(/C=C/C(=O)O)ccc3OC(F)(F)F)cc21 [Compound 25, 3-[3-(4-Ethyl-1-isopropyl-7-methyl-3-oxo-1,2,3,4-tetrahydro-quinoxalin-6-yl)-4-trifluoromethoxy-phenyl]-acrylic acid]	
	> 2	CCN1CC(C)(C)Oc2cc(C)c(-c3cc(/C=C/C(=O)O)ccc3OC(F)(F)F)cc21 [Compound 27, 3-[3-(4-Ethyl-2,2,7-trimethyl-3,4-dihydro-2H-benzo[1,4]oxazin-6-yl)-4-trifluoromethoxy-phenyl]-acrylic acid]	
	> 2	CCN1C(=O)C(C)Oc2cc(C)c(-c3cc(/C=C/C(=O)O)ccc3OC(F)(F)F)cc21 (centres unmarked) [Compound 7, 3-[3-(4-Ethyl-2,7-dimethyl-3-oxo-3,4-dihydro-2H-benzo[1,4]oxazin-6-yl)-4-trifluoromethoxy-phenyl]-acrylic acid]	
	> 2	CCN1C(=O)OC(C)(C)c2cc(C)c(-c3cc([C@@H]4C[C@H]4C(=O)O)ccc3OC(F)(F)F)cc21 [Compound 19, 2-[3-(1-Ethyl-4,4,6-trimethyl-2-oxo-1,4-dihydro-2H-benzo[d][1,3]oxazin-7-yl)-4-trifluoromethoxy-phenyl]-cyclopropanecarboxylic acid]	
> 2	> 2	CCN1C(=O)OC(C(C)C)c2cc(C)c(-c3cc(CCC(=O)O)ccc3OC(F)(F)F)cc21 (centres unmarked) [Compound 18, 3-[3-(1-Ethyl-4-isopropyl-6-methyl-2-oxo-1,4-dihydro-2H-benzo[d][1,3]oxazin-7-yl)-4-trifluoromethoxy-phenyl]-propionic acid]	4.5
	> 2	CCN1C(=O)COc2cc(C)c(-c3cc(/C=C/C(=O)O)ccc3OC(F)(F)F)cc21 [Compound 6, 3-[3-(4-Ethyl-7-methyl-3-oxo-3,4-dihydro-2H-benzo[1,4]oxazin-6-yl)-4-trifluoromethoxy-phenyl]-acrylic acid]	
> 2	> 2	Cc1cc2c(cc1-c1cc(/C=C/C(=O)O)ccc1OCC(F)(F)F)N(C)C(=O)C(C)(C)O2 [Compound 5, 3-[3-(2,2,4,7-Tetramethyl-3-oxo-3,4-dihydro-2H-benzo[1,4]oxazin-6-yl)-4-(2,2,2-trifluoro-ethoxy)-phenyl]-acrylic acid]	
	> 2	CCN1C(=O)C(C(C)C)Oc2cc(C)c(-c3cc(/C=C/C(=O)O)ccc3OC(F)(F)F)cc21 (centres unmarked) [Compound 9, 3-[3-(4-Ethyl-2-isopropyl-7-methyl-3-oxo-3,4-dihydro-2H-benzo[1,4]oxazin-6-yl)-4-trifluoromethoxy-phenyl]-acrylic acid]	
	> 2	CCN1C(=O)OC(C(C)C)c2cc(C)c(-c3cc([C@@H]4C[C@H]4C(=O)O)ccc3OC(F)(F)F)cc21 (some centres unmarked) [Compound 20, 2-[3-(1-Ethyl-4-isopropyl-6-methyl-2-oxo-1,4-dihydro-2H-benzo[d][1,3]oxazin-7-yl)-4-trifluoromethoxy-phenyl]-cyclopropanecarboxylic acid]	
	> 2	CCn1c(=O)c(=O)n(CC)c2cc(-c3cc(/C=C/C(=O)O)ccc3OC(F)(F)F)c(C)cc21 [Compound 24, 3-[3-(1,4-Diethyl-7-methyl-2,3-dioxo-1,2,3,4-tetrahydro-quinoxalin-6-yl)-4-trifluoromethoxy-phenyl]-acrylic acid]	
	> 2	CCN1C(=O)OC(C(C)C)c2cc(C)c(-c3cc(/C=C/C(=O)O)ccc3OC(F)(F)F)cc21 (centres unmarked) [Compound 16, 3-[3-(1-Ethyl-4-isopropyl-6-methyl-2-oxo-1,4-dihydro-2H-benzo[d][1,3]oxazin-7-yl)-4-trifluoromethoxy-phenyl]-acrylic acid]	
	> 2	CCC1Oc2cc(C)c(-c3cc(/C=C/C(=O)O)ccc3OC(F)(F)F)cc2N(CC)C1=O (centres unmarked) [Compound 8, 3-[3-(2,4-Diethyl-7-methyl-3-oxo-3,4-dihydro-2H-benzo[1,4]oxazin-6-yl)-4-trifluoromethoxy-phenyl]-acrylic acid]	
	> 2	CCN1C(=O)OC(C)(C)c2cc(C)c(-c3cc(CCC(=O)O)ccc3OC(F)(F)F)cc21 [Compound 17, 3-[3-(1-Ethyl-4,4,6-trimethyl-2-oxo-1,4-dihydro-2H-benzo[d][1,3]oxazin-7-yl)-4-trifluoromethoxy-phenyl]-propionic acid]	
